Results taken from the NIST ThermoML archive (doi:10.1021/je301095j).

Assay: xn = mol fraction of the nth substance listed
Conditions: 101 kPa, Liquid; for kinematic viscosity: Capillary tube (Ostwald / Ubbelohde) method; for mass density: Vibrating tube method

COCCOC [1,2-dimethoxyethane] + CCCCCCCCO
Conditions	kinematic viscosity [m2/s]	mass density [kg/m3]
283.15 K, x1 = 0.06697	1.152e-05	833.91
283.15 K, x1 = 0.1224	8.912e-06	835.41
283.15 K, x1 = 0.2171	5.951e-06	838.23
283.15 K, x1 = 0.3108	4.177e-06	841.31
283.15 K, x1 = 0.4036	3.014e-06	844.65
283.15 K, x1 = 0.5046	2.16e-06	848.72
283.15 K, x1 = 0.593	1.65e-06	852.66
283.15 K, x1 = 0.6949	1.225e-06	857.74
283.15 K, x1 = 0.7907	9.43e-07	863.1
283.15 K, x1 = 0.8983	7.18e-07	870.05
283.15 K, x1 = 0.9329	6.62e-07	872.53
293.15 K, x1 = 0.06547	8.238e-06	826.71
293.15 K, x1 = 0.1085	6.898e-06	827.8
293.15 K, x1 = 0.208	4.672e-06	830.48
293.15 K, x1 = 0.3098	3.277e-06	833.51
293.15 K, x1 = 0.4069	2.39e-06	836.71
293.15 K, x1 = 0.5036	1.79e-06	840.25
293.15 K, x1 = 0.5981	1.37e-06	844.1
293.15 K, x1 = 0.6905	1.07e-06	848.29
293.15 K, x1 = 0.7963	8.12e-07	853.72
293.15 K, x1 = 0.896	6.42e-07	859.6
293.15 K, x1 = 0.9434	5.8e-07	862.69
303.15 K, x1 = 0.05281	6.333e-06	819.29
303.15 K, x1 = 0.2029	3.707e-06	822.86
303.15 K, x1 = 0.2197	3.499e-06	823.3
303.15 K, x1 = 0.299	2.72e-06	825.44
303.15 K, x1 = 0.3826	2.122e-06	827.89
303.15 K, x1 = 0.4984	1.531e-06	831.64
303.15 K, x1 = 0.6107	1.14e-06	835.78
303.15 K, x1 = 0.6969	9.2e-07	839.34
303.15 K, x1 = 0.8038	7.15e-07	844.34
303.15 K, x1 = 0.892	5.86e-07	849.04
303.15 K, x1 = 0.935	5.35e-07	851.56
313.15 K, x1 = 0.05472	4.688e-06	812.24
313.15 K, x1 = 0.1071	3.922e-06	813.31
313.15 K, x1 = 0.2145	2.8e-06	815.67
313.15 K, x1 = 0.2882	2.251e-06	817.43
313.15 K, x1 = 0.4028	1.643e-06	820.44
313.15 K, x1 = 0.5028	1.27e-06	823.38
313.15 K, x1 = 0.5955	1.008e-06	826.4
313.15 K, x1 = 0.6897	8.07e-07	829.8
313.15 K, x1 = 0.7898	6.45e-07	833.92
313.15 K, x1 = 0.8945	5.16e-07	838.85
313.15 K, x1 = 0.9681	4.44e-07	842.83

COCCOC [1,2-dimethoxyethane] + CCCCCO
Conditions	kinematic viscosity [m2/s]	mass density [kg/m3]
283.15 K, x1 = 0.04484	5.31e-06	824.28
283.15 K, x1 = 0.07064	–	825.63
283.15 K, x1 = 0.1021	4.09e-06	827.27
283.15 K, x1 = 0.2104	2.73e-06	833.01
283.15 K, x1 = 0.3077	2.01e-06	838.24
283.15 K, x1 = 0.4078	1.54e-06	843.7
283.15 K, x1 = 0.4902	1.27e-06	848.25
283.15 K, x1 = 0.5751	–	853
283.15 K, x1 = 0.712	8.27e-07	860.78
283.15 K, x1 = 0.7978	7.25e-07	865.75
283.15 K, x1 = 0.8137	–	866.69
283.15 K, x1 = 0.8957	6.35e-07	871.5
283.15 K, x1 = 0.9347	–	873.81
283.15 K, x1 = 0.9473	5.96e-07	874.57
293.15 K, x1 = 0.04837	3.98e-06	816.95
293.15 K, x1 = 0.07064	–	818.04
293.15 K, x1 = 0.09244	3.32e-06	819.11
293.15 K, x1 = 0.1962	–	824.24
293.15 K, x1 = 0.2048	2.24e-06	824.66
293.15 K, x1 = 0.3078	1.65e-06	829.83
293.15 K, x1 = 0.408	1.28e-06	834.94
293.15 K, x1 = 0.497	1.05e-06	839.55
293.15 K, x1 = 0.595	8.65e-07	844.67
293.15 K, x1 = 0.6985	7.25e-07	850.18
293.15 K, x1 = 0.7088	–	850.73
293.15 K, x1 = 0.7978	6.17e-07	855.54
293.15 K, x1 = 0.8137	–	856.41
293.15 K, x1 = 0.896	5.4e-07	860.92
293.15 K, x1 = 0.9071	–	861.54
293.15 K, x1 = 0.9541	5.01e-07	864.14
303.15 K, x1 = 0.04441	3.14e-06	809.26
303.15 K, x1 = 0.1118	2.45e-06	812.32
303.15 K, x1 = 0.1947	1.89e-06	816.15
303.15 K, x1 = 0.3088	1.39e-06	821.48
303.15 K, x1 = 0.4056	1.11e-06	826.06
303.15 K, x1 = 0.4948	9.29e-07	830.35
303.15 K, x1 = 0.6215	–	836.52
303.15 K, x1 = 0.7076	6.5e-07	840.79
303.15 K, x1 = 0.8038	5.69e-07	845.62
303.15 K, x1 = 0.8519	–	848.06
303.15 K, x1 = 0.8998	5.08e-07	850.52
303.15 K, x1 = 0.9524	4.8e-07	853.23
313.15 K, x1 = 0.06014	2.34e-06	802.42
313.15 K, x1 = 0.0969	2.08e-06	803.97
313.15 K, x1 = 0.1159	–	804.76
313.15 K, x1 = 0.2221	–	809.31
313.15 K, x1 = 0.3249	1.13e-06	813.76
313.15 K, x1 = 0.4049	9.58e-07	817.27
313.15 K, x1 = 0.4955	8.09e-07	821.28
313.15 K, x1 = 0.599	6.82e-07	825.94
313.15 K, x1 = 0.7001	5.86e-07	830.56
313.15 K, x1 = 0.801	5.16e-07	835.25
313.15 K, x1 = 0.9031	4.59e-07	840.05
313.15 K, x1 = 0.9604	4.34e-07	842.78

COCCOC [1,2-dimethoxyethane] + CCO
Conditions	kinematic viscosity [m2/s]	mass density [kg/m3]
283.15 K, x1 = 0.05379	1.552e-06	805.91
283.15 K, x1 = 0.09719	1.381e-06	811.83
283.15 K, x1 = 0.2113	1.08e-06	825.56
283.15 K, x1 = 0.2968	9.35e-07	834.32
283.15 K, x1 = 0.4056	8.09e-07	843.94
283.15 K, x1 = 0.4865	7.45e-07	850.18
283.15 K, x1 = 0.5971	6.82e-07	857.71
283.15 K, x1 = 0.6948	6.38e-07	863.49
283.15 K, x1 = 0.8257	5.98e-07	870.24
283.15 K, x1 = 0.8749	5.83e-07	872.52
283.15 K, x1 = 0.9456	5.71e-07	875.57
293.15 K, x1 = 0.05746	1.304e-06	797.66
293.15 K, x1 = 0.09986	1.17e-06	803.22
293.15 K, x1 = 0.1453	1.07e-06	808.77
293.15 K, x1 = 0.2138	9.37e-07	816.42
293.15 K, x1 = 0.2947	8.24e-07	824.42
293.15 K, x1 = 0.399	7.25e-07	833.43
293.15 K, x1 = 0.4877	6.64e-07	840.1
293.15 K, x1 = 0.5965	6.09e-07	847.24
293.15 K, x1 = 0.6885	5.75e-07	852.56
293.15 K, x1 = 0.8249	5.39e-07	859.38
293.15 K, x1 = 0.8772	5.26e-07	861.72
293.15 K, x1 = 0.9542	5.13e-07	864.93
303.15 K, x1 = 0.04309	1.14e-06	786.92
303.15 K, x1 = 0.1038	9.89e-07	794.71
303.15 K, x1 = 0.2082	8.13e-07	806.41
303.15 K, x1 = 0.2955	7.17e-07	814.8
303.15 K, x1 = 0.3926	6.39e-07	822.94
303.15 K, x1 = 0.497	5.82e-07	830.54
303.15 K, x1 = 0.5918	5.43e-07	836.55
303.15 K, x1 = 0.6991	5.1e-07	842.5
303.15 K, x1 = 0.8103	4.86e-07	847.89
303.15 K, x1 = 0.8876	4.73e-07	851.26
303.15 K, x1 = 0.9199	4.68e-07	852.57
313.15 K, x1 = 0.04639	9.59e-07	778.57
313.15 K, x1 = 0.1049	8.49e-07	785.84
313.15 K, x1 = 0.211	7.05e-07	797.27
313.15 K, x1 = 0.2977	6.27e-07	805.28
313.15 K, x1 = 0.3787	5.75e-07	811.92
313.15 K, x1 = 0.4959	5.21e-07	820.25
313.15 K, x1 = 0.6512	4.7e-07	829.41
313.15 K, x1 = 0.6979	4.62e-07	831.83
313.15 K, x1 = 0.8168	4.39e-07	837.35
313.15 K, x1 = 0.8803	4.32e-07	840.03
313.15 K, x1 = 0.9384	4.23e-07	842.37
